Experimental data reported in patent US10568900B1, “Androgen effectors” (priority 2013, dated 2020).
“Also recorded” adds a separate entry of the source. Where two headings read alike, the source gives them in different places.

Columns and labels:
[1] = target: T1, human androgen receptor (hAR) (Homo sapiens, UniProt P10275); assay: Human Androgen Receptor (hAR) assay in recombinant yeast strain BJ1991 PGKhAR; type: cell-based
T1 construct: expressed in transfected cells; host or cells: recombinant yeast strain BJ1991 PGKhAR
T1 sequence (P10275 1-920): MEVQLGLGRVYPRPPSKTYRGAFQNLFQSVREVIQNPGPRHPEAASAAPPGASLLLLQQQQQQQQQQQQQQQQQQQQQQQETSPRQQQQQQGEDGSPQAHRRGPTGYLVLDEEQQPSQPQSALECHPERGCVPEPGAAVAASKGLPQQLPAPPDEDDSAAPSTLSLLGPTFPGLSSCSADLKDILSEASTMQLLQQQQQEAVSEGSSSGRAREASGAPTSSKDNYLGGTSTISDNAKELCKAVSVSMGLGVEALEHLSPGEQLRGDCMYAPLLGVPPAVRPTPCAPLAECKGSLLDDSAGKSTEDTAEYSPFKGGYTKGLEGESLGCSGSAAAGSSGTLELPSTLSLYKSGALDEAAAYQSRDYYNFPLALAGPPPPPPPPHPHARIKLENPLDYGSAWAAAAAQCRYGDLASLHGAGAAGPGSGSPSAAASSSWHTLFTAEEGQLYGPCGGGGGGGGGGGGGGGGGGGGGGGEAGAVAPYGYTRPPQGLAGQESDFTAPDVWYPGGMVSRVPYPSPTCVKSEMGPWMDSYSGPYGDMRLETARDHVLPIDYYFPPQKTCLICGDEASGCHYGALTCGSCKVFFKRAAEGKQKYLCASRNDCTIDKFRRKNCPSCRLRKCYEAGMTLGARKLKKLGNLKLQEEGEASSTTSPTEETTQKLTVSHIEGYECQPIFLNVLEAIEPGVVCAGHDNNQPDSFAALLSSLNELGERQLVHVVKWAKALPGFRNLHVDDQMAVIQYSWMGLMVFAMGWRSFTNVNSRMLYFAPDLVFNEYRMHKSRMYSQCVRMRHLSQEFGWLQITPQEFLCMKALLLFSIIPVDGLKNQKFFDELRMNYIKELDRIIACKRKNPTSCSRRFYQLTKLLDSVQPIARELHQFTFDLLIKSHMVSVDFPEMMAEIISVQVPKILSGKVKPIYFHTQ
Description: Human Androgen Receptor Assay (hAR) in recombinant yeast strain BJ1991 PGKhAR which contains the human androgen receptor (hAR) gene and a built-in color-indicator to androgenicity via an androgen response element (ARE) which is linked to a gene encoding beta-galactosidase, which hydrolyses end terminal B-galactopyranosyl residues on a chlorophenol red-B-D-galactopyranoside releasing colored indicator, chlorophenol red. Thus, test solutions turn further red with androgenicity.

[2] = target: T2, 5-alpha-reductase (Rattus norvegicus, UniProt P24008); assay: 5-alpha-reductase activity, conversion of testosterone to dihydrotestosterone in microsomal homogenized rat livers; type: biochemical
T2 construct: in microsomal homogenized rat livers; from tissue; host or cells: rat liver microsomes
T2 sequence (P24008 1-259): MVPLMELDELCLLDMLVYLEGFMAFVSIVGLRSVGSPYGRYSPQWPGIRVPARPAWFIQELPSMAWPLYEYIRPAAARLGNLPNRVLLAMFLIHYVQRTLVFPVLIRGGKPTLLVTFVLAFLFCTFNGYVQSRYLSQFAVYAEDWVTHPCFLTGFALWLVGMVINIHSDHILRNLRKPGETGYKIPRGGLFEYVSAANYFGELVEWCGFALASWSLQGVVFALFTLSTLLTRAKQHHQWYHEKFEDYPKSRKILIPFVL
Description: Finasteride (MK906 or Proscar) was used as the positive control inhibitor.

[3] = target: T3, androgen receptor (AR) (Rattus norvegicus, UniProt P15207); assay: Androgen Receptor Binding Assay (rat prostatic cytosol), displacement of radiolabeled testosterone
T3 construct: rat prostatic cytosol as a source of androgen receptors; from tissue; host or cells: rat prostate cytosol
T3 sequence (P15207 1-902): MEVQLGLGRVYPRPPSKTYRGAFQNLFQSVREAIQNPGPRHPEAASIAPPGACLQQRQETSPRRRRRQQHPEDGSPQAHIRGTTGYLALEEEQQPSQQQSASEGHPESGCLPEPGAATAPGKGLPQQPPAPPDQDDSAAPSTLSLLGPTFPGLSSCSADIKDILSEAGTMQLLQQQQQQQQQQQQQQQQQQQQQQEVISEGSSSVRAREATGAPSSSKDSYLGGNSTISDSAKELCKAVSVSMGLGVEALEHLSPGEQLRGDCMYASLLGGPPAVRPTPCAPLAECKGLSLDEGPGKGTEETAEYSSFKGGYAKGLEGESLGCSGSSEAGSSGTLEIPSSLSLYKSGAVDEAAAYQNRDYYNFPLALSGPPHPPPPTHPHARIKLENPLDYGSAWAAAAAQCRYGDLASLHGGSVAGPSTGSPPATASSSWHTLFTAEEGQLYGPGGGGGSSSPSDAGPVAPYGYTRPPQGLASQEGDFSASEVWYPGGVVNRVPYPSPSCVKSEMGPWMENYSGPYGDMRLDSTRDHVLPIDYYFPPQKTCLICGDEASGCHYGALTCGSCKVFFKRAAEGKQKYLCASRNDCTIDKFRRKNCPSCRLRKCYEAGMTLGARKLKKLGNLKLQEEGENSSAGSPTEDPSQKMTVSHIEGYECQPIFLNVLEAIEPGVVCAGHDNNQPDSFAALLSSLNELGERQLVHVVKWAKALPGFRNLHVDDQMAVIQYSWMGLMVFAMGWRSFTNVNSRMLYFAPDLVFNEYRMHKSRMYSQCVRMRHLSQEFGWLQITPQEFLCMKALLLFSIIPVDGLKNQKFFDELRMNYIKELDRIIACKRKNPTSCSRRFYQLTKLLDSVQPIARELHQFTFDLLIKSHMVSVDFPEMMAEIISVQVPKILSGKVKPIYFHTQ
Description: The Androgen Receptor Binding Assay in rat prostatic cytosol as a source of androgen receptors identifies chemicals that have the potential to interact with the androgen receptor (AR) in vitro. […] The biological action of androgens is mediated through their interaction with the AR; androgens have no hormonal activity in the absence of a functional AR. Due to a high degree of DNA sequence conservation, substances that bind the AR from rats are presumed to be capable of binding the AR in humans. (Kelce, 1998; Betney, 2003). This screening assay measures the receptor-binding affinity of chemicals by evaluating their ability to displace a bound reference androgen, showing the degree of competition for normal androgen binding and activity, either acting as an agonist or antagonist (which is not discerned by the assay).

[4] = target: T4, ERβ (Homo sapiens, UniProt Q92731); details: cited from earlier work
T4 construct: host or cells: yeast cells (cited work)

[5] = target: T5, ERα (Homo sapiens, UniProt P03372); details: cited from earlier work
T5 construct: host or cells: yeast cells (cited work)
T5 sequence (P03372 1-595): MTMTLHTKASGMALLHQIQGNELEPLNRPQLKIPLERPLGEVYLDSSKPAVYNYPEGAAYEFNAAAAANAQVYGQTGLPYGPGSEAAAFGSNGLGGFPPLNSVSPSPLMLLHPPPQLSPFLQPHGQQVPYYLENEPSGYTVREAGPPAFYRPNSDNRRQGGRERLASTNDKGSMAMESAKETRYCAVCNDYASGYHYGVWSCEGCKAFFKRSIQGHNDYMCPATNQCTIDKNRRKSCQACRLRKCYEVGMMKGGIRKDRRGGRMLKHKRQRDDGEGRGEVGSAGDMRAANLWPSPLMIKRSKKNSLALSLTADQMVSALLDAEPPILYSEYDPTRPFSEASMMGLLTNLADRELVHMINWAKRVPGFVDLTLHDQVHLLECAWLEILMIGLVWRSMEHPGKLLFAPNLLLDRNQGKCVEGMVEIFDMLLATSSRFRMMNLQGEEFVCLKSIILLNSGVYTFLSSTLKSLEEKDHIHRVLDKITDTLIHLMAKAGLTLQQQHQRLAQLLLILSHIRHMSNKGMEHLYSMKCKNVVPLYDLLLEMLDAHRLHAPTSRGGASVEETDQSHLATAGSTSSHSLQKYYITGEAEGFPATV

[6] = cited from earlier work
[7] = tested on: yeast cells; details: cited from earlier work
[8] = tested at 500 μg/ml, rat prostatic cytosol
[9] = rat liver microsomes, read-out: *50% Inhibition (converted)

T4 sequence (Q92731 whole entry, species assumed): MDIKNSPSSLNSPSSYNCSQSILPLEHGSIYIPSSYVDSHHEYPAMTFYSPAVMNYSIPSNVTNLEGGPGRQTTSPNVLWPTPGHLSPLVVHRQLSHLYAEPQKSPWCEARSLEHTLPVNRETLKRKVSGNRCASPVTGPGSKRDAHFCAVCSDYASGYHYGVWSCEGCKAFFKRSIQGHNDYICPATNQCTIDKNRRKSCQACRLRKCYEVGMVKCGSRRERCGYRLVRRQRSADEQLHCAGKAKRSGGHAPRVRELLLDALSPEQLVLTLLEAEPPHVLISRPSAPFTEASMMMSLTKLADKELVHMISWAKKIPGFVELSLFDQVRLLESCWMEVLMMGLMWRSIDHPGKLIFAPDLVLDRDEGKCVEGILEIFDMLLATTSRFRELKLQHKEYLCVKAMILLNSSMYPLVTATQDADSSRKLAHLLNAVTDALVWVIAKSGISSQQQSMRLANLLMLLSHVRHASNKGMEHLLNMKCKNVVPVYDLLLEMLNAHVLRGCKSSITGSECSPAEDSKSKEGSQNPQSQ

Molecule: C[C@@H](CC[C@@]1(O)O[C@H]2C[C@H]3[C@@H]4CC=C5C[C@@H](O[C@@H]6O[C@H](CO)[C@@H](O)[C@H](O[C@@H]7O[C@H](CO)[C@@H](O)[C@H](O)[C@H]7O)[C@H]6O[C@@H]6O[C@@H](C)[C@H](O)[C@@H](O)[C@H]6O)CC[C@]5(C)[C@H]4CC[C@]3(C)[C@H]2[C@@H]1C)CO[C@@H]1O[C@H](CO)[C@@H](O)[C@H](O)[C@H]1O [#9 Protogracillin, Protogracillin]
- hAR assay activity, in words [1]: testosterone agonist activity
- receptor affinity relative to cyproterone's binding affinity [1]: 1/200
- *hAG (agonist) ([1]; tested at 100 μg/ml): Active (2)
- *hAT (antagonist) ([1]; tested at 100 μg/ml): Inactive
- 5-alpha-reductase inhibition, in words [2]: did not inhibit 5AR
- androgen receptor binding / interference with testosterone binding, in words ([3]; listed as Protogracillin): does not interfere with normal testosterone binding to receptor
- androgen receptor binding / interference with testosterone binding, in words ([3]; listed as protogracillin): did not interfere with regular testosterone receptor binding
- *Specific Binding % Inhibition [3, 8]: 0%

Molecule: CC1(C)C=Cc2c(ccc3c2OC[C@@H](c2ccc(O)cc2O)C3)O1 [#4 Glabridin, Glabridin]
- estrogenic response (agonism), in words ([4]; 1×10^−7 to 1×10^−4 M): does not exert any estrogenic response
- ERβ antagonism, in words [4]: did not have antagonistic properties
- *hAG (agonist) ([1]; tested at 5 μg/ml): Inactive
- *hAT (antagonist) ([1]; tested at 5 μg/ml): Inactive
- 5-alpha-reductase inhibition, in words [2]: significant 5ARI activity; also recorded: potent dihydrotestosterone reductase inhibitors
- 5-alpha-reductase inhibition, in words ([2]; listed as #4): interfere with the activity of 5-alpha-reductase
- IC50 [2, 9]: 89.4 µM
- estrogenic response (agonism), in words ([5]; 1×10^−7 to 1×10^−4 M): does not exert any estrogenic response
- inhibition of the E2 response ([5]; at 6×10^−6 M, without being toxic towards yeast cells): ~80%
- ERα antagonism, in words [5]: ERα-selective antagonist
- reduction of estrogenic E2 [5]: 80%
- androgen receptor binding / interference with testosterone binding, in words [3]: does not interfere with normal testosterone to androgen receptor binding
- inhibition at 500 µg/mL ([3]; tested at 500 μg/ml, rat prostatic cytosol, read-out: *Specific Binding % Inhibition): 0%
- solubility in water, in words [6]: insoluble in water
- concentration toxic to yeast cells [7]: above 1×10^−4 M

Molecule: CC1(C)C=Cc2c(O)ccc(C3=Cc4ccc(O)cc4OC3)c2O1 [#1 Glabrene, Glabrene]
- *hAG (agonist) ([1]; tested at 25 μg/ml): Inactive
- *hAT (antagonist) ([1]; tested at 25 μg/ml): Inactive
- 5-alpha-reductase inhibition, in words [2]: significant 5ARI activity; also recorded: potent dihydrotestosterone reductase inhibitors
- 5-alpha-reductase inhibition, in words ([2]; listed as #1): interfere with the activity of 5-alpha-reductase
- IC50 ([2]; read-out: IC50 (5ARI) (converted)): 15.5 µM
- inhibition at 125 µg/mL ([3]; tested at 125 μg/ml, rat prostatic cytosol, read-out: *Specific Binding % Inhibition): 21%

Molecule: CC1=CCC(C(C)(C)O)CC1 (stereo not drawn) [alpha-terpineol]
- 5-alpha-reductase inhibition, in words [2]: significant 5ARI activity

Molecule: Leucoanthocyanidin [#6 Leucoanthocyanidin]
- *hAG (agonist) ([1]; tested at 500 μg/ml): Clear
- *hAT (antagonist) ([1]; tested at 500 μg/ml): Clear
- 5-alpha-reductase inhibition, in words [2]: significant 5ARI activity
- 5-alpha-reductase inhibition, in words ([2]; listed as #6): interfere with the activity of 5-alpha-reductase
- *50% Inhibition ([2]; rat liver microsomes): 30 µg/mL
- *Specific Binding % Inhibition [3, 8]: 28%

Molecule: C=CC(C)(C)c1cc(/C=C/C(=O)c2ccc(O)cc2)c(OC)cc1O [#5 Licochalcone A, Licochalcone A]
- *hAG (agonist) ([1]; tested at 5 μg/ml): Inactive
- *hAT (antagonist) ([1]; tested at 5 μg/ml): Inactive
- 5-alpha-reductase inhibition, in words ([2]; listed as #5): interfere with the activity of 5-alpha-reductase
- 5-alpha-reductase inhibition, in words ([2]; listed as Licochalcone A): potent dihydrotestosterone reductase inhibitors
- 5-alpha-reductase inhibition, in words ([2]; listed as licochalcone A): significant 5ARI activity
- *50% Inhibition ([2]; rat liver microsomes): 7 µg/mL
- *Specific Binding % Inhibition [3, 8]: 21%

Molecule: CC(C)(C)NC(=O)[C@H]1CC[C@H]2[C@@H]3CC[C@H]4NC(=O)C=C[C@]4(C)[C@H]3CC[C@]12C [Finasteride Proscar Control, Finasteride, reference compound]
- IC50 ([2]; positive control, read-out: IC50 (converted)): ~0.188 µM
- IC50 [2, 9]: 0.188 µM
